Test results reported in ChEMBL document CHEMBL4808169, “Discovery of Potent and Fast-Acting Antimalarial Bis-1,2,4-triazines” (J Med Chem, 2021).

Key:
[1] = Drug metabolism in human liver microsomes assessed as oxygenated metabolite N-methyl-2-(3'-propoxy-5,5'-bi(1,2,4-triazin)-3-yloxy)ethanamine oxide formation by LC-MS/MS(CID) analysis; format: ADME, Microsome
[2] = Drug metabolism in Sprague-Dawley rat urine assessed as oxygenated metabolite M+16(2) formation at 10 mg/kg, po by high-resolution mass spectrometry; format: ADME, organism-based; conditions: in vivo
[3] = Drug metabolism in Sprague-Dawley rat plasma assessed as M-69 metabolite formation at 10 mg/kg, po by high-resolution mass spectrometry; format: ADME, organism-based; conditions: in vivo
[4] = Drug metabolism in mouse hepatocytes assessed as oxygenated metabolite N-methyl-2-(3'-propoxy-5,5'-bi(1,2,4-triazin)-3-yloxy)ethanamine oxide formation by LC-MS/MS(CID) analysis; format: ADME, cell-based, Hepatocyte

Measured: Drug metabolism

CCCOc1nncc(-c2cnnc(OCCN(C)C)n2)n1
Metabolite_Detected: all assays above
